Test results published in article PMC8536830 (Current Biology, 2021).
“And” between values parts separate entries of the source, which are not always exact repeats. Equal entries are not always repeated.

Key:
Assay type in all cases: cell-based, C. elegans
LGC-56 [1] = target: T1, LGC-56 (Caenorhabditis elegans, UniProt Q10052); experiment: Two-electrode voltage clamp, agonist-evoked currents in Xenopus oocytes expressing LGC-56; conditions: for EC50: Xenopus oocytes, TEVC, current normalized to Imax, Hill equation with variable slope, read-out: EC50, agonist-evoked dose response, LGC-56; for Channel activation in ligand screen, LGC-56: ligands screened at 100 μM, oocytes clamped at −60 mV
Description: (§1) We aimed to deorphanize C. elegans LGICs without known ligands, focusing on 5 genes in the putative monoamine-gated group: lgc-50; lgc-51; lgc-52; lgc-54; and lgc-56 (previously named ggr-3). Using heterologous overexpression in Xenopus oocytes and two-electrode voltage clamp recordings, we measured channel activity evoked by application of 11 monoamines and other neurotransmitters.
(§2) Defolliculated Xenopus laevis oocytes were obtained from EcoCyte Bioscience (Dortmund, Germany) and maintained in ND96 (in mM: 96 NaCl, 1 MgCl2, 5 HEPES, 1.8 CaCl2, 2 KCl) solution at 16°C for 3-5 days.
(§3) 5'-capped cRNA was synthesized in vitro using the T3 mMessage mMachine transcription kit according to manufacturer’s protocol (Thermo Fischer Scientific, CA, USA). RNA was then purified using the GeneJET RNA purification kit (Thermo Fischer Scientific, CA, USA) prior to cRNA injection. Defolliculated Xenopus oocytes were placed individually into 96 well plates and injected with 50nL of 500ng/μL RNA using the Roboinject system (Multi Channel Systems GmbH, Reutlingen, Germany). When two constructs were injected the total RNA concentration remained 500ng/μL, with a 1:1 ratio of the components. Injected oocytes were incubated at 16°C in ND96 until the day of recording, typically between 3-5 days post injection.
(§4) Two-electrode voltage clamp recordings were carried out using the Robocyte2 recording system or a manual TEVC set up, using an OC-725D amplifier (Multi Channel Systems, Reutlingen, Germany) and paired with a custom-made recording chamber and agar bridges from reference and bath electrodes. Glass electrodes were pulled on a P-1000 Micropipette Puller (Sutter, Ca, USA) with a resistance ranging from 0.7-2 MΩ, pipettes, containing AgCl wires, were backfilled with a 3 M KCl solution for manual recordings and 1.5M KCl and 1 M acetic acid for Robocyte2 recordings. Oocytes were clamped at −60mV unless stated otherwise. Continuous recordings were taken during application of agonists and antagonists at 500 Hz. Data was recorded using WinWCP or RoboCyte2 control software, manual data was filtered at 10 Hz.
(§5) Dose response curves were calculated from the peak current during a 10 s agonist stimulation in ND96 solution, with a 60 s ND96 wash in between doses. Data was gathered over at least two occasions, using different batches of oocytes. Normalized dose response data was fitted to a nonlinear curve using a four parameters variable slope and the EC50 and Hill slope was calculated. All further recordings were carried out with the agonist at its EC50 concentration unless stated otherwise. Ion selectivity was determined using a voltage ramp protocol of 20mV/s ranging from −80mV to +60mV in the presence or absence of the primary agonist in three different solutions: ND96, NMDG (Na^+ free) and Na Gluconate (low Cl^-) solutions. Normalized ramp curves were fitted to a linear regression line and the x intercept was compared between solutions to calculate an average Erev from 4-5 oocytes. Antagonist dose response curves were calculated from the peak current during a 10 s agonist + antagonist stimulation in ND96 solution, with the agonist concentration remaining constant. Repeated agonist stimulus protocols were carried out by measuring the peak current during a 10 s agonist stimulation at three wash intervals, 10 s, 30 s and 60 s. Kinetic measurements were calculated from a 60 s agonist perfusion. […]

LGC-54 [2] = target: T2, LGC-54 (Caenorhabditis elegans, UniProt O17041); experiment: Two-electrode voltage clamp, antagonist inhibitory dose response in Xenopus oocytes expressing LGC-54; conditions: for IC50: Xenopus oocytes, TEVC, agonist constant at its EC50, Hill equation, three-parameter slope; for Block of LGC-54 currents by antagonist: agonist at EC50
Description: (§6) We also investigated the antagonist profiles of three potential antagonists: mecamylamine; spiperone; and picrotoxin. These antagonists target different binding sites and have different specificity for vertebrate receptors.
as §2, §3, §4
(§7) Dose response curves were calculated from the peak current during a 10 s agonist stimulation in ND96 solution, with a 60 s ND96 wash in between doses. Data was gathered over at least two occasions, using different batches of oocytes. Normalized dose response data was fitted to a nonlinear curve using a four parameters variable slope and the EC50 and Hill slope was calculated. All further recordings were carried out with the agonist at its EC50 concentration unless stated otherwise. Ion selectivity was determined using a voltage ramp protocol of 20mV/s ranging from −80mV to +60mV in the presence or absence of the primary agonist in three different solutions: ND96, NMDG (Na^+ free) and Na Gluconate (low Cl^-) solutions. Normalized ramp curves were fitted to a linear regression line and the x intercept was compared between solutions to calculate an average Erev from 4-5 oocytes. Antagonist dose response curves were calculated from the peak current during a 10 s agonist + antagonist stimulation in ND96 solution, with the agonist concentration remaining constant. Repeated agonist stimulus protocols were carried out by measuring the peak current during a 10 s agonist stimulation at three wash intervals, 10 s, 30 s and 60 s. Kinetic measurements were calculated from a 60 s agonist perfusion. Python scripts for TEVC analysis can be found at on GitHub at hiris25/TEVC-analysis-scripts and on Zenodo https://doi.org/10.5281/zenodo.5095181.
(§8) Dose response and antagonist response curves were generated using custom-built python scripts (key resources table), which combined data from multiple recordings and normalized data by calculating I/Imax for each oocyte. Normalized mean, SD and n numbers where then imported into GraphPad where data was plotted and EC50 or IC50 values were calculated by fitting to the Hill equation using either three or four parameter slopes to obtain the highest degree of fit.

LGC-51/52 [3] = target: T3, LGC-51/52 (Caenorhabditis elegans, UniProt Q9NA62+X5LVB0); experiment: Two-electrode voltage clamp, antagonist inhibitory dose response in Xenopus oocytes expressing LGC-51/52
Description: as §6, §2
5'-capped cRNA was synthesized in vitro using the T3 mMessage mMachine transcription kit according to manufacturer’s protocol (Thermo Fischer Scientific, CA, USA). […]
(§9) Two-electrode voltage clamp recordings were carried out using the Robocyte2 recording system or a manual TEVC set up, using an OC-725D amplifier (Multi Channel Systems, Reutlingen, Germany) and paired with a custom-made recording chamber and agar bridges from reference and bath electrodes. […] Data was recorded using WinWCP or RoboCyte2 control software, manual data was filtered at 10 Hz.
Dose response curves were calculated from the peak current during a 10 s agonist stimulation in ND96 solution, with a 60 s ND96 wash in between doses. […] Normalized dose response data was fitted to a nonlinear curve using a four parameters variable slope and the EC50 and Hill slope was calculated. […] Kinetic measurements were calculated from a 60 s agonist perfusion. […]

LGC-56 [4] = target: T1, LGC-56; experiment: Two-electrode voltage clamp, antagonist inhibitory dose response in Xenopus oocytes expressing LGC-56; conditions: for IC50: Xenopus oocytes, TEVC, agonist constant at its EC50, Hill equation, three-parameter slope; for Block of LGC-56 currents by antagonist: agonist at EC50
Description: as §6, §2, §3, §4, §7, §8

LGC-52 = LGC-52 (Caenorhabditis elegans, UniProt Q9NA62); experiment: Two-electrode voltage clamp, agonist-evoked currents in Xenopus oocytes expressing LGC-52; conditions: for EC50: Xenopus oocytes, TEVC, current normalized to Imax, Hill equation with variable slope, read-out: EC50, agonist-evoked dose response, LGC-52; for Channel activation in ligand screen, LGC-52: ligands screened at 100 μM, oocytes clamped at −60 mV
Description: as §1, §2, §3, §4, §5

LGC-51/52 [5] = target: T3, LGC-51/52; experiment: Two-electrode voltage clamp, agonist-evoked currents in Xenopus oocytes co-expressing LGC-51 and LGC-52; conditions: for Agonist-induced peak current of LGC-51/52 heteromer compared with LGC-52: 1 mM TYR or DA; for EC50: Xenopus oocytes co-expressing LGC-51 and LGC-52, TEVC, Hill equation with variable slope, read-out: EC50, agonist-evoked dose response, LGC-51/52 heteromer
Description: as §2, §3, §4
as §5, with “Normalized ramp curves were fitted to a linear regression line and the x intercept was compared between solutions to calculate an average Erev from 4-5 oocytes.” left out, “Repeated agonist stimulus protocols were carried out by measuring the peak current during a 10 s agonist stimulation at three wash intervals, 10 s, 30 s and 60 s.” left out

LGC-54 [6] = target: T2, LGC-54; experiment: Two-electrode voltage clamp, agonist-evoked currents in Xenopus oocytes expressing LGC-54; conditions: for EC50: Xenopus oocytes, TEVC, current normalized to Imax, Hill equation with variable slope, read-out: EC50, agonist-evoked dose response, LGC-54; for Channel activation in ligand screen, LGC-54: ligands screened at 100 μM, oocytes clamped at −60 mV
Description: as §1, §2, §3, §4, §7
Dose response and antagonist response curves were generated using custom-built python scripts (key resources table), which combined data from multiple recordings and normalized data by calculating I/Imax for each oocyte.

LGC-50 = target: T4, LGC-50 (Caenorhabditis elegans, UniProt P41849); experiment: Two-electrode voltage clamp, agonist-evoked currents in Xenopus oocytes expressing LGC-50; conditions: ligands screened at 100 μM, oocytes clamped at −60 mV
T4 construct: lgc-50 ORF F […]; expressed in transfected cells; host or cells: Xenopus laevis oocytes injected with cRNA (plasmid pJML002, KSM: lgc-50 cDNA)
T4 sequence (P41849 20-491): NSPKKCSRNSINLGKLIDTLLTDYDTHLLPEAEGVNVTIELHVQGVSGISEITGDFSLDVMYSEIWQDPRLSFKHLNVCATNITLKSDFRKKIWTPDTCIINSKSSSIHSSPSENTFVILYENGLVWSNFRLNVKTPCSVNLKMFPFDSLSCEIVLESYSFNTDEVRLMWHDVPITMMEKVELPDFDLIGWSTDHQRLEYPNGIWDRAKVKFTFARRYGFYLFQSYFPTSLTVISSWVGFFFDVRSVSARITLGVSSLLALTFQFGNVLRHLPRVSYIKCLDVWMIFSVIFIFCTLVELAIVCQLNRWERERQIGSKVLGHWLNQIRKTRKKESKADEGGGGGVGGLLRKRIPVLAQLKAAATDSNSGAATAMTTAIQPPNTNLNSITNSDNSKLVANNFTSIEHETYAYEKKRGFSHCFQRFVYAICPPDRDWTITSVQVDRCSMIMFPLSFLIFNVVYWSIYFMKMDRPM
Description: as §1, §2
5'-capped cRNA was synthesized in vitro using the T3 mMessage mMachine transcription kit according to manufacturer’s protocol (Thermo Fischer Scientific, CA, USA). RNA was then purified using the GeneJET RNA purification kit (Thermo Fischer Scientific, CA, USA) prior to cRNA injection. […]
as §9
Dose response curves were calculated from the peak current during a 10 s agonist stimulation in ND96 solution, with a 60 s ND96 wash in between doses. […] Normalized dose response data was fitted to a nonlinear curve using a four parameters variable slope and the EC50 and Hill slope was calculated. […] Ion selectivity was determined using a voltage ramp protocol of 20mV/s ranging from −80mV to +60mV in the presence or absence of the primary agonist in three different solutions: ND96, NMDG (Na^+ free) and Na Gluconate (low Cl^-) solutions. […] Antagonist dose response curves were calculated from the peak current during a 10 s agonist + antagonist stimulation in ND96 solution, with the agonist concentration remaining constant. […] Kinetic measurements were calculated from a 60 s agonist perfusion. […]

T3 sequence (X5LVB0 entry or part of it): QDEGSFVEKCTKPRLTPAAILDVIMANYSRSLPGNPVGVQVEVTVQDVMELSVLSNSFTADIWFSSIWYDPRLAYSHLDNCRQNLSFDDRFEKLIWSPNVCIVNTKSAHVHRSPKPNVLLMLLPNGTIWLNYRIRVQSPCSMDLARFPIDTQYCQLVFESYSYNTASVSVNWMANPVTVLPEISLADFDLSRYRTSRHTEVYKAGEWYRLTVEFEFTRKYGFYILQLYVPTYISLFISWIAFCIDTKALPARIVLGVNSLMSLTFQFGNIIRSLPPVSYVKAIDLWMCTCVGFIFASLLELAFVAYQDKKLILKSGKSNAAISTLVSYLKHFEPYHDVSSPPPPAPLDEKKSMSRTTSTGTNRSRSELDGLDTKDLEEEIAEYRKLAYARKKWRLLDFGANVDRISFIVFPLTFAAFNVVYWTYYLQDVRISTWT
T3 sequence (Q9NA62 entry or part of it): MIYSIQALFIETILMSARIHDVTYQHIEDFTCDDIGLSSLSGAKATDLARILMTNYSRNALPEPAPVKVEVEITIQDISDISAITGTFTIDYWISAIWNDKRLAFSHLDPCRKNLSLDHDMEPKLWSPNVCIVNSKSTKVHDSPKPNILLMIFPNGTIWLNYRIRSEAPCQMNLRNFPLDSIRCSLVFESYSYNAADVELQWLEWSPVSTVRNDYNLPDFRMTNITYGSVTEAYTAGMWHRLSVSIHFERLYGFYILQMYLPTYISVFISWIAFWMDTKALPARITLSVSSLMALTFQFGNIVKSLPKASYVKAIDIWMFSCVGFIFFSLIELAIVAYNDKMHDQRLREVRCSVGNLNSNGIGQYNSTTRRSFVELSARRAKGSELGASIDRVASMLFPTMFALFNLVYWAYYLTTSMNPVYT
T2 sequence (O17041 entry or part of it): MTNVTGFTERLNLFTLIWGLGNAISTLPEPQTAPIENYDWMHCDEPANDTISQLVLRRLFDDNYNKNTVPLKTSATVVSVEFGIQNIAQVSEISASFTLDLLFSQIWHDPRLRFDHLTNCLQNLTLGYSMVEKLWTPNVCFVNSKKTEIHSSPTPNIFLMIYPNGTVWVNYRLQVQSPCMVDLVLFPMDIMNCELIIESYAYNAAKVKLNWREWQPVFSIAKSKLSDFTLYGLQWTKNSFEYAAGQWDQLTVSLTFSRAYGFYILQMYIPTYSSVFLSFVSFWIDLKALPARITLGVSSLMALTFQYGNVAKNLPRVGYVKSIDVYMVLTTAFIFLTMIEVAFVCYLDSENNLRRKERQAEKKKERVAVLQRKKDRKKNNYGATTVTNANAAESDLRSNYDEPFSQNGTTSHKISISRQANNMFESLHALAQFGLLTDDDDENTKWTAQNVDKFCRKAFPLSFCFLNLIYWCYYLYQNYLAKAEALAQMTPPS
T1 sequence (Q10052 entry or part of it): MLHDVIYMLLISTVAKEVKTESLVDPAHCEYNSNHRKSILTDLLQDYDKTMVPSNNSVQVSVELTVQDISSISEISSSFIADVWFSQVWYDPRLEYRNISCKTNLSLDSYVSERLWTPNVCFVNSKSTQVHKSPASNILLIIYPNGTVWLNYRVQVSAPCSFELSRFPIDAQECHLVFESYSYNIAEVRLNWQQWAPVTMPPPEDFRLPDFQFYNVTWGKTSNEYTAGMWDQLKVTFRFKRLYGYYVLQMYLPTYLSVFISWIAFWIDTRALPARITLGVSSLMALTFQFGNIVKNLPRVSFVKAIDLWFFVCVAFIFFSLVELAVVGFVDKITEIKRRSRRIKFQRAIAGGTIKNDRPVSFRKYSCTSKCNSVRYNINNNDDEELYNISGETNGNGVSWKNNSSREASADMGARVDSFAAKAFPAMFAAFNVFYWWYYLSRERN
LGC-52, sequence (Q9NA62 entry or part of it): as the sequence (Q9NA62 entry or part of it) above

NCC(O)c1ccc(O)cc1 (stereo not drawn) [octopamine]
Response of LGC-56 at very high concentration (LGC-56 [1]; 1 mM): small response

O=C(CCCN1CCC2(CC1)C(=O)NCN2c1ccccc1)c1ccc(F)cc1 [Spiperone, spiperone]
IC50 (LGC-54 [2]): 81 µM | Block of LGC-54 currents by antagonist (LGC-54 [2]): partial block | IC50 (LGC-51/52 [3]; Xenopus oocytes, TEVC, agonist constant at its EC50, Hill equation, three-parameter slope): 170 µM | Block of LGC-51/52 currents by antagonist (LGC-51/52 [3]; agonist at EC50): partial block | IC50 (LGC-56 [4]): 127 µM | Block of LGC-56 currents by antagonist (LGC-56 [4]): partial block

NCCc1ccc(O)c(O)c1 [dopamine]
EC50 (LGC-52): 0.51 µM | Channel activation in ligand screen, LGC-52 (LGC-52): activated | EC50 lower for dopamine than tyramine, LGC-52 (LGC-52; ratio of EC50 values): 100 fold | EC50 (LGC-56 [1]): 642 µM | Channel activation in ligand screen, LGC-56 (LGC-56 [1]): activated | Agonist-induced peak current of LGC-51/52 heteromer compared with LGC-52 (LGC-51/52 [5]): no significant effect | EC50 (LGC-51/52 [5]): 0.81 µM | EC50 (LGC-54 [6]): 18 µM | Channel activation in ligand screen, LGC-54 (LGC-54 [6]): activated

picrotoxin
IC50 (LGC-54 [2]): 43 µM | Block of LGC-54 currents by antagonist (LGC-54 [2]): large inhibition of currents | IC50 (LGC-56 [4]): 59 µM | Block of LGC-56 currents by antagonist (LGC-56 [4]): large inhibition of currents

CNC1(C)C2CCC(C2)C1(C)C (stereo not drawn) [mecamylamine]
IC50 (LGC-54 [2]): 114 µM and > 100 µM | Block of LGC-54 currents by antagonist (LGC-54 [2]): only a partial block | IC50 (LGC-56 [4]): 1 µM | Block of LGC-56 currents by antagonist (LGC-56 [4]): partially blocked

NCCc1c[nH]c2ccccc12 [tryptamine]
Channel gating in ligand screen, LGC-50 (LGC-50): gated

NCCc1ccc(O)cc1 [tyramine]
EC50 (LGC-52): 54 µM | Channel activation in ligand screen, LGC-52 (LGC-52): activated | EC50 (LGC-56 [1]): 70 µM | Channel activation in ligand screen, LGC-56 (LGC-56 [1]): activated | Agonist-induced peak current of LGC-51/52 heteromer compared with LGC-52 (LGC-51/52 [5]): significantly higher | EC50 (LGC-51/52 [5]): 4 µM | EC50 (LGC-54 [6]): 13 µM | Channel activation in ligand screen, LGC-54 (LGC-54 [6]): activated
